The source of these data is patent US20230263752A1, “VETERINARY COMPOSITIONS FOR THE TREATMENT AND/OR PREVENTION OF PROTOZOAN DISEASES AND METHODS OF PREPARATION THEREOF” (ADIFEED SP. Z O. O., priority 2020, published 2023).

Where “and” joins values, the source holds several entries; their conditions need not be identical. Identical values can stand only once.

Assay [1] relates to Gregarina blattarum. In words: in vitro protozoicidal test on gregarines isolated from cockroaches, in Ringer's solution. In kind it is cell-based. Conditions: for LD100: 100% mortality within 3 minutes. An excerpt: For in vitro tests of antiprotozoal activity of the composition five reference organisms representing taxonomic groups to which pathogenic protozoa belong were selected, i.e: • Amoeba proteus—Chaos diffluens—a protozoan of the order Euamoebida, belonging to fifth supergroup of the Amoebozoa, living in waters. • Paramecium caudatum—a slipper animalcule representing the Ciliata orachs, living in waters. • Gregarina blattarum—gregarine isolated from cockroaches, representing the phylum Apicomplexa, living in the digestive tracts or body cavities of invertebrates. • Euglena gracilis—a protozoan living in water, representing the flagellates—Mastigophora, family Euglenaceae. • Trichomonas hominis—a protozoan living in the human colon, representing the Trichomonadidae.
The gregarines were isolated from the cockroaches and, after being placed on a watch slide, were treated with the products at different concentrations in Ringer's solution. Each sample contained ten individuals.
The compositions, negative controls, and positive controls were dissolved in an aqueous solution of polysorbate 80 (0.05%) before application to a watch slide.
After this time, the reaction product was filtered through filter paper. […] Compositions I and II were then analysed for their antiprotozoal properties. […]
The tested preparations were dissolved in an aqueous solution of polysorbate 80 (0.05%) before being applied to a watch glass. […] Observation under a fluorescence microscope with phase contrast was carried out.

Assay [2] has as its system Amoeba proteus. The experiment in a line: in vitro protozoicidal test on watch glass, LD50/LD100. In kind it is cell-based.
Assay [3] has as its system Trichomonas hominis. The assay is described as above. In kind it is cell-based.
The subject of assay [4] is Trypanosoma cruzi. Conditions: read-out: inhibitory effect on 50% of the population (IC50); cited from earlier work.
The subject of assay [5] is Trypanosoma cruzi and Leishmania chagasi. The conditions noted are these: cited from earlier work.
Assay [6] has as its system Trypanosoma cruzi and different Leishmania species. Conditions: cited from earlier work.
Setting [7] is: 100% mortality within 3 minutes.

By IC50 is commonly meant the concentration that inhibits the measured activity by half.

As to `Cc1ncc([N+](=O)[O-])n1CCO` [M, metronidazole], the LD50 in assay [1] (50% mortality within 3 minutes) was 0.13% and 0.3%; in assay [2] (50% mortality within 3 minutes) it was 0.3%; in assay [3] (50% mortality within 3 minutes), 0.05% and 0.08%. The LD100 in assay [1] is 0.3%; in assay [2] (setting [7]), 0.5%; in assay [3] (setting [7]), 0.1% and 0.15%.

As to `CC1CS(=O)(=O)CCN1/N=C/c1ccc([N+](=O)[O-])o1` (stereo not shown) [Nifurtimox], the IC50 in assay [4] was 6 µM; in assay [5] it was 0.3 to 0.4 µg/mL.

Turning to `O=C(Cn1ccnc1[N+](=O)[O-])NCc1ccccc1` [benznidazole], the “values obtained (in vitro antiprotozoal activity)” value in assay [6] is 45.02 µg/mL.

As for “copper carbonate [Copper carbonate solution]”, the LD100 in assay [1] amounted to 0.37%.
